We go through 1 substance from patent publication US20060293264A1, “STAT3 decoy oligonucleotides and uses therefor” (priority 2004, published 2006).

In one series the target is T1, STAT3 (Homo sapiens, UniProt P40763).
T1 construct: Whole cell extracts were prepared and EMSAs performed on 4% native polyacrylamide gels; endogenous in cells; host or cells: whole cell extracts
The series can be described thus: STAT3 activation by EMSA in harvested xenografts. The format is in vivo. To be noted: xenografts harvested 4 hrs after last treatment; p=0.02. As to the method: Electrophoretic Mobility Shift Assay (EMSA). Whole cell extracts were prepared and EMSAs performed on 4% native polyacrylamide gels as described (Xi, S., et al. J Biol Chem, 278: 31574-31583, 2003 and Wong, P., etal. Mol Cell Biol, 14. 914-922, 1994). STAT3 activation was evaluated by using binding reactions with 20 μg of extracted protein, and radiolabeled high-affinity serum inducible element (hSIE) duplex oligonucleotide (Wagner et al., EMBO J. 9(13):4477-4484 (1990)). Quantification of the STAT3 signal was performed by scanning the SIF-A band using a Molecular Dynamics Personal Densitometer SI and IMAGEQUANT software. […] For supershift experiments, extracts were preincubated with STAT3 polyclonal antibody (C-20, Santa Cruz Biotechnology). Gel shift bands were quantified by densitometry and the Molecular Analyst software (AlphaDigidoc 1000, Alpha-Innotech) with normalization of each band to the positive control lysate run on that gel as described previously for STAT3 activation determinations (Grandis, J. R. et al. Proc Natl Acad Sci USA, 97: 4227-4232., 2000).
(§1) In vivo tumor xenograft studies. Female athymic nude mice nu/nu (4-6 weeks old; 20±2 g; Harlan-Sprague-Dawley) were implanted with 1×10^6 1483 cells into the right and left flank with a 26-gauge needle/1 ml tuberculin syringe, resulting in two tumors per mouse. […]
(In general: Mobility shift assays separate free from complexed probe on a gel.)

In series [1] the test system is SCCHN xenografts (1483 cells). The series can be described thus: In vivo tumor xenograft study, tumor volumes. Set-up: species or system athymic nude mice. To be noted: 25 μg intratumoral daily, 1483 xenografts, nude mice; p=0.002. As to the method:
Statistics. In vivo comparisons of STAT3, cyclin D1 and Bcl-xL expression levels were conducted with the Wilcoxon test for comparing two groups or the Kruskal-Wallis test for comparing three groups. All tests were exact and two-tailed. Studies of the joint effect of STAT3 decoy and cisplatin upon in vitro apoptosis were evaluated with a two way factorial design. Additive and synergistic effects of the STAT3 decoy and cisplatin were tested with a permutation test. In vivo tumor xenograft experiments were analyzed with mixed linear models that assumed animals were random effects having an unstructured within-animal covariance matrix. Data were log transformed and examined for the interaction between treatment group and day of observation beginning with day 10 after tumor inoculation, differences between treatment groups were estimated and tested with the pooled estimated standard error. Multiple comparisons were controlled by simulating observations from a multivariate t distribution with the same covariance matrix as the observed data and adjusting p values accordingly.
as §1

Series [2] relates to head and neck squamous cell carcinoma. To be noted: dose-dependent; Leong et al. 2003; cited from earlier work.
Series [3] has as its system Egr-1 transcription recognition sequence. The series can be described thus: pEgr-1-Luc reporter assay in SCCHN cells. To be noted: SCCHN cells co-transfected with 2 μg pEgr-1-Luc and 2 μg decoy, 24 hrs. The format is cell-based. As to the method: STAT3 decoy-specific transcriptional repression of Egr-1(Early Growth Response -1 enhancer, pEGR-1-Luc, Stratagene Cat. No. 240130, containing three repeats of the Egr-1 transcription recognition sequence: 5′-GGGTGGGGN-3′ (SEQ ID NO: 31) was also observed. SCCHN cells were co-transfected with 2 μg pEgr-1-Luc plasmid and 2 μg of the STAT3 decoy or the control mutant decoy. At 24 hrs after transfection, luciferase activity was measured and normalized to the total amount of protein according to standard methods.
In general terms: In a reporter assay the amount or activity of a reporter protein is the signal.

The test system of another series is SCCHN cells (1483). The series can be described thus: Annexin 5-Cy3 apoptosis assay in SCCHN cells. The class given is cell-based. To be noted: 1483 cells; 25 μM, 6 days; p<0.0001. On the procedure:
SCCHN cells (1483) were treated with mutant control decoy (25 μM), or STAT3 decoy alone (25 μM), or cisplatin alone (20 μM), or STAT3 decoy (25 μM) plus cisplatin (20 μM). Mutant control decoy or STAT3 decoy was always applied for a total of 6 days, and cisplatin was added for the last 24 hr before harvesting. The effects of the STAT3 decoy plus cisplatin on apoptosis was assessed by an Annexin 5-Cy3 apoptosis assay (BioVision Research Products, 2455-D Old Middlefield Way, Mountain View, Calif. 94043 USA) and Bcl-xL and Cyclin D1 were examined using immunoblotting as described below.
Following treatment with STAT3 decoy plus cisplatin, SCCHN cells were detached by trypsinization, counted and pelleted (1000 r.p.m. for 5 min). Cell pellets were washed once with PBS (pH 7.4) and resuspended in 100 μl Annexin V binding buffer (10 mM HEPES, pH 7.4, 140 mM NaCl, 2.5 mM CaCl2). […] The membranes of apoptotic cells are stained a bright orange color when analyzed with a fluorescence microscope. The ratio (percentage) of apoptotic to total cells (apoptotic plus non-apoptotic cells) was calculated for each high power field. For each treatment, 5-10 high power fields of view were quantitated on each section.

The subject of the next series is SCCHN cells. The series can be described thus: Incorporation of decoy into SCCHN cells, fluorescence labeled flow cytometry. The format is cell-based. To be noted: SCCHN cells in vitro, previously assessed. (In general: A flow cytometer gives signals particle by particle.)
Series [4] has as its system normal mucosal epithelial cells. To be noted: cited from earlier work.

Entries after “also recorded” stand apart in the source; their conditions may differ.

T1 sequence (P40763 2-770 limits assumed): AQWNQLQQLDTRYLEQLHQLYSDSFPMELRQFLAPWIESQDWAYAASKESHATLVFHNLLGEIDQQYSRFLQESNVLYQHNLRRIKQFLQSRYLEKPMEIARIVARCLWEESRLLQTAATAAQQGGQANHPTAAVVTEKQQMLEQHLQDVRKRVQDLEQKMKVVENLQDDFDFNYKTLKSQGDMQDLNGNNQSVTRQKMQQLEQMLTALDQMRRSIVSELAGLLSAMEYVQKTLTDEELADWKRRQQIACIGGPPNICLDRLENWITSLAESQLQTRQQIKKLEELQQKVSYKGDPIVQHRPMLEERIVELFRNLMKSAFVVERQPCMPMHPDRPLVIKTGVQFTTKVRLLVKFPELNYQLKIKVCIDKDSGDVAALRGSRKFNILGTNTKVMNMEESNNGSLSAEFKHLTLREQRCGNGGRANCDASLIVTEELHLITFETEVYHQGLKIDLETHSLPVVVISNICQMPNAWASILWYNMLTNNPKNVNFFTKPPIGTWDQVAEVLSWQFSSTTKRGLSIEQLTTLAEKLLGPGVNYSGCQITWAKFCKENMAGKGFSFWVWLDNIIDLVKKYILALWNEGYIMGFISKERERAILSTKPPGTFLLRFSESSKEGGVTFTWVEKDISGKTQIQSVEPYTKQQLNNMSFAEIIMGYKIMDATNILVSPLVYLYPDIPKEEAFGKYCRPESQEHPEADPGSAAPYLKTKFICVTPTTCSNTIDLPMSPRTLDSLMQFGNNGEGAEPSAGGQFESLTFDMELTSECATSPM

Consider “STAT3 decoy (sense CATTTCCCGTAAATC; antisense GATTTACGGGAAATG; phosphorothioate modified, further chemistry not given here; listed as Homo sapiens)”, for which the “STAT3 activation levels compared with mutant control decoy” value with STAT3 is “decreased”. In addition, the “tumor growth (tumor volumes) compared with mutant control decoy” value in series [1] is “significantly decreased; also recorded: growth inhibited”. Also, the “head and neck squamous cell carcinoma growth in vitro” value in series [2] is recorded as “abrogate”. Also, the “transcriptional repression of Egr-1 enhancer reporter” value in series [3] was “observed”. Further, the “apoptosis compared with mutant control decoy” value in the series with SCCHN cells (1483) is given as “increased”. The “cells in which decoy was detected” value in the series with SCCHN cells is recorded as over 90%. In addition, the “toxicity to normal mucosal epithelial cells” value in series [4] is recorded as “lack toxicity”.
